What follows are compounds tested against Genome polyprotein (Hepatitis C virus genotype 1a (isolate H77), UniProt P27958) (assay: Continuous Spectrophotometric Assay). Settings: pH 6.5; 30 °C.
Chain of Genome polyprotein (P27958 1027-1657 limits assumed): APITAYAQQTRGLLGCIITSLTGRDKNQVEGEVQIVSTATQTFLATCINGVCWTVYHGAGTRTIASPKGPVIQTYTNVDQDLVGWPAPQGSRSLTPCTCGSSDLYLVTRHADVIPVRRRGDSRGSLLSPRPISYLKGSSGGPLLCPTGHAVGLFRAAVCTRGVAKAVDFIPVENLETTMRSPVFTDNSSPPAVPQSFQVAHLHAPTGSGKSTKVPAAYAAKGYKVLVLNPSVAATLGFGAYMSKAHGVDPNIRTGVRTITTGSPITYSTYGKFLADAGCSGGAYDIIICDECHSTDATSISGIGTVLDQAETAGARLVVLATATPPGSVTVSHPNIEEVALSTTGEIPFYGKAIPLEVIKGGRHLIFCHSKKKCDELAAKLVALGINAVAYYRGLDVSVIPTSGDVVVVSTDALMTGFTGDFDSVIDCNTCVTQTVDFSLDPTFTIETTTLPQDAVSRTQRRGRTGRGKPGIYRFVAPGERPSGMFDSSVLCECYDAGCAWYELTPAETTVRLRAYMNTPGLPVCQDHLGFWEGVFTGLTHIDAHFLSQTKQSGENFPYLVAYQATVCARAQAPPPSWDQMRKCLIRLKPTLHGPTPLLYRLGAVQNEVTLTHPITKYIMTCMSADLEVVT
Method: Proteolytic cleavage of the ester linkage between the Nva (L-norvaline) and the chromophore (PAP) was monitored for change in absorbance at 370 nm. Initial velocities were determined using linear regression and kinetic constants were obtained by fitting the data to the Michaelis-Menten equation.
With `C=CCOC(=O)CNC(=O)C(=O)C(CCC)NC(=O)[C@@H]1CN(Cc2ccccc2)C(=O)N1C(=O)[C@@H](NC(=O)[C@@H](NC(=O)[C@H](CCC(=O)O)NC(=O)[C@H](CCC(=O)O)NC(C)=O)C(C)C)C(C)C` (stereo partly drawn) [(4S)-4-{[(1S)-1-{[(1S)-1-{[(2S)-1-[(5S)-3-benzyl-2-oxo-5-[(1-oxo-1-{[2-oxo-2-(prop-2-en-1-yloxy)ethyl]carbamoyl}pentan-2-yl)carbamoyl]imidazolidin-1-yl]-3-methyl-1-oxobutan-2-yl]carbamoyl}-2-methylpropyl]carbamoyl}-3-carboxypropyl]carbamoyl}-4-acetamidobutanoic acid] the Ki was 1 µM.
With `C=CCNC(=O)C(=O)C(CCC)NC(=O)[C@@H]1CN(Cc2ccccc2)C(=O)N1C(=O)[C@@H](NC(=O)[C@@H](NC(=O)[C@H](CCC(=O)O)NC(=O)[C@H](CCC(=O)O)NC(C)=O)C(C)C)C(C)C` (stereo partly drawn) [(4S)-4-{[(1S)-1-{[(1S)-1-{[(2S)-1-[(5S)-3-benzyl-2-oxo-5-{[1-oxo-1-(prop-2-en-1-ylcarbamoyl)pentan-2-yl]carbamoyl}imidazolidin-1-yl]-3-methyl-1-oxobutan-2-yl]carbamoyl}-2-methylpropyl]carbamoyl}-3-carboxypropyl]carbamoyl}-4-acetamidobutanoic acid] the Ki was 1 µM.
`C=CCNC(=O)C(=O)C(CCC)NC(=O)[C@@H]1CN(CC(=O)OCC)C(=O)N1C(=O)[C@@H](NC(=O)[C@@H](NC(=O)[C@H](CCC(=O)O)NC(=O)[C@H](CCC(=O)O)NC(C)=O)C(C)C)C(C)C` (stereo partly drawn) [(4S)-4-{[(1S)-3-carboxy-1-{[(1S)-1-{[(2S)-1-[(5S)-3-(2-ethoxy-2-oxoethyl)-2-oxo-5-{[1-oxo-1-(prop-2-en-1-ylcarbamoyl)pentan-2-yl]carbamoyl}imidazolidin-1-yl]-3-methyl-1-oxobutan-2-yl]carbamoyl}-2-methylpropyl]carbamoyl}propyl]carbamoyl}-4-acetamidobutanoic acid] showed a Ki of 4 µM.
`C=CCOC(=O)CNC(=O)C(=O)C(CCC)NC(=O)[C@@H]1CN(Cc2ccc(Cl)c(Cl)c2)C(=O)N1C(=O)[C@@H](NC(=O)[C@@H](NC(=O)[C@H](CCC(=O)O)NC(=O)[C@H](CCC(=O)O)NC(C)=O)C(C)C)C(C)C` (stereo partly drawn) [(4S)-4-{[(1S)-3-carboxy-1-{[(1S)-1-{[(2S)-1-[(5S)-3-[(3,4-dichlorophenyl)methyl]-2-oxo-5-[(1-oxo-1-{[2-oxo-2-(prop-2-en-1-yloxy)ethyl]carbamoyl}pentan-2-yl)carbamoyl]imidazolidin-1-yl]-3-methyl-1-oxobutan-2-yl]carbamoyl}-2-methylpropyl]carbamoyl}propyl]carbamoyl}-4-acetamidobutanoic acid] gave a Ki of 0.31 µM.
In the case of `C=CCNC(=O)C(=O)C(CCC)NC(=O)[C@@H]1CNC(=O)N1C(=O)[C@@H](NC(=O)[C@@H](NC(=O)[C@H](CCC(=O)O)NC(=O)[C@H](CCC(=O)O)NC(C)=O)C(C)C)C(C)C` (stereo partly drawn) [(4S)-4-{[(1S)-3-carboxy-1-{[(1S)-2-methyl-1-{[(2S)-3-methyl-1-oxo-1-[(5S)-2-oxo-5-{[1-oxo-1-(prop-2-en-1-ylcarbamoyl)pentan-2-yl]carbamoyl}imidazolidin-1-yl]butan-2-yl]carbamoyl}propyl]carbamoyl}propyl]carbamoyl}-4-acetamidobutanoic acid], the Ki is reported as 46 µM.
With `C=CCNC(=O)C(=O)C(CCC)NC(=O)[C@@H]1CN(CC(=O)OCC)C(=O)N1C(=O)[C@@H](NC(=O)[C@@H](NC(=O)OCC(C)C)C(C)C)C(C)C` (stereo partly drawn) [ethyl 2-[(4S)-3-[(2S)-3-methyl-2-[(2S)-3-methyl-2-{[(2-methylpropoxy)carbonyl]amino}butanamido]butanoyl]-2-oxo-4-{[1-oxo-1-(prop-2-en-1-ylcarbamoyl)pentan-2-yl]carbamoyl}imidazolidin-1-yl]acetate] the Ki was 78 µM.
With `C=CCOC(=O)CNC(=O)C(=O)C(CCC)NC(=O)[C@@H]1CN(Cc2ccccc2)C(=O)N1C(=O)[C@@H](NC(=O)[C@@H](NC(=O)[C@H](CCC(=O)OC(C)(C)C)NC(=O)[C@H](CCC(=O)OC(C)(C)C)NC(C)=O)C(C)C)C(C)C` (stereo partly drawn) [tert-butyl (4S)-4-{[(1S)-1-{[(1S)-1-{[(2S)-1-[(5S)-3-benzyl-2-oxo-5-[(1-oxo-1-{[2-oxo-2-(prop-2-en-1-yloxy)ethyl]carbamoyl}pentan-2-yl)carbamoyl]imidazolidin-1-yl]-3-methyl-1-oxobutan-2-yl]carbamoyl}-2-methylpropyl]carbamoyl}-4-(tert-butoxy)-4-oxobutyl]carbamoyl}-4-acetamidobutanoate] the Ki was greater than 100 µM.
`C=CCNC(=O)C(=O)C(CCC)NC(=O)[C@@H]1CN(Cc2ccccc2)C(=O)N1C(=O)[C@@H](NC(=O)[C@@H](NC(=O)[C@H](CCC(=O)OC(C)(C)C)NC(=O)[C@H](CCC(=O)OC(C)(C)C)NC(C)=O)C(C)C)C(C)C` (stereo partly drawn) [tert-butyl (4S)-4-{[(1S)-1-{[(1S)-1-{[(2S)-1-[(5S)-3-benzyl-2-oxo-5-{[1-oxo-1-(prop-2-en-1-ylcarbamoyl)pentan-2-yl]carbamoyl}imidazolidin-1-yl]-3-methyl-1-oxobutan-2-yl]carbamoyl}-2-methylpropyl]carbamoyl}-4-(tert-butoxy)-4-oxobutyl]carbamoyl}-4-acetamidobutanoate] showed a Ki of 61 µM.
Work on `C=CCNC(=O)C(=O)C(CCC)NC(=O)[C@@H]1CN(CC(=O)OCC)C(=O)N1C(=O)[C@@H](NC(=O)[C@@H](NC(=O)[C@H](CCC(=O)OC(C)(C)C)NC(=O)[C@H](CCC(=O)OC(C)(C)C)NC(C)=O)C(C)C)C(C)C` (stereo partly drawn) [tert-butyl (4S)-4-{[(1S)-4-(tert-butoxy)-1-{[(1S)-1-{[(2S)-1-[(5S)-3-(2-ethoxy-2-oxoethyl)-2-oxo-5-{[1-oxo-1-(prop-2-en-1-ylcarbamoyl)pentan-2-yl]carbamoyl}imidazolidin-1-yl]-3-methyl-1-oxobutan-2-yl]carbamoyl}-2-methylpropyl]carbamoyl}-4-oxobutyl]carbamoyl}-4-acetamidobutanoate] yielded a Ki of 30 µM.
With `C=CCOC(=O)CNC(=O)C(=O)C(CCC)NC(=O)[C@@H]1CN(Cc2ccc(Cl)c(Cl)c2)C(=O)N1C(=O)[C@@H](NC(=O)[C@@H](NC(=O)[C@H](CCC(=O)OC(C)(C)C)NC(=O)[C@H](CCC(=O)OC(C)(C)C)NC(C)=O)C(C)C)C(C)C` (stereo partly drawn) [tert-butyl (4S)-4-{[(1S)-4-(tert-butoxy)-1-{[(1S)-1-{[(2S)-1-[(5S)-3-[(3,4-dichlorophenyl)methyl]-2-oxo-5-[(1-oxo-1-{[2-oxo-2-(prop-2-en-1-yloxy)ethyl]carbamoyl}pentan-2-yl)carbamoyl]imidazolidin-1-yl]-3-methyl-1-oxobutan-2-yl]carbamoyl}-2-methylpropyl]carbamoyl}-4-oxobutyl]carbamoyl}-4-acetamidobutanoate] the Ki was greater than 100 µM.
For `C=CCNC(=O)C(=O)C(CCC)NC(=O)[C@@H]1CNC(=O)N1C(=O)[C@@H](NC(=O)[C@@H](NC(=O)[C@H](CCC(=O)OC(C)(C)C)NC(=O)[C@H](CCC(=O)OC(C)(C)C)NC(C)=O)C(C)C)C(C)C` (stereo partly drawn) [tert-butyl (4S)-4-{[(1S)-4-(tert-butoxy)-1-{[(1S)-2-methyl-1-{[(2S)-3-methyl-1-oxo-1-[(5S)-2-oxo-5-{[1-oxo-1-(prop-2-en-1-ylcarbamoyl)pentan-2-yl]carbamoyl}imidazolidin-1-yl]butan-2-yl]carbamoyl}propyl]carbamoyl}-4-oxobutyl]carbamoyl}-4-acetamidobutanoate], the Ki was 69 µM.

Reference: BindingDB's records for doi:10.1016/j.bmcl.2004.09.058 (Schering-Plough Research Institute, 2004)
